The subject of the experiment is P388 leukemia ip, CD2F1 mice, survival T/C. The experiment is described as follows: NCI In Vivo Anticancer Drug Screen. Data for tumor model P388 Leukemia (intraperitoneal) in CD2F1 (CDF1) mice. The note with it: endpoint: median survival time, higher = longer survival. The method, boiled down: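 Mice carrying the transplanted tumor received test compound or vehicle. Survival was recorded in each group, and the value is the treated-group measurement divided by that of the vehicle-treated control group.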

Where [1] appears, read: dose: 25.0 mg/kg/injection, schedule: Q01DX009 (ip), vehicle: Klucel (hydroxypropylcellulose) (HPC).
[2] abbreviates: dose: 50.0 mg/kg/injection, schedule: Q01DX009 (ip), vehicle: Klucel (hydroxypropylcellulose) (HPC).
Where [3] appears, read: dose: 100.0 mg/kg/injection, schedule: Q01DX009 (ip), vehicle: Klucel (hydroxypropylcellulose) (HPC).
Setting [4] is: dose: 12.5 mg/kg/injection, schedule: Q01DX009 (ip), vehicle: Klucel (hydroxypropylcellulose) (HPC).
Setting [5] is: dose: 200.0 mg/kg/injection, schedule: Q01DX009 (ip), vehicle: Klucel (hydroxypropylcellulose) (HPC).
The mark [6] stands for this setting: dose: 50.0 mg/kg/injection, schedule: Q04DX003 (ip), vehicle: saline with Tween-80.
Setting [7] is: dose: 60.0 mg/kg/injection, schedule: Q01DX005 (ip), vehicle: saline with Tween-80.

Values joined by “and” are separate entries in the source; they are usually repeats but may differ in a detail not shown here. Identical values can stand only once. Toxic doses and inconclusive results are not listed.

T/C data for 20 compounds are collected here from PubChem BioAssay AID330 (DTP/NCI, 2004).

With `C1CC(N2CC2)CCC1N1CC1` (stereo not given), the T/C is 182 % of control (dose: 1.56 mg/kg/injection, schedule: Q01DX009 (ip), vehicle: saline) and 237 % of control (dose: 3.12 mg/kg/injection, schedule: Q01DX009 (ip), vehicle: saline).
For `CC(C)NC(=O)OCc1c(COC(=O)NC(C)C)c(-c2ccc(Cl)c(Cl)c2)n2c1CSC2`, the T/C reads like this: (dose: 25.0 mg/kg/injection, schedule: Q01DX005 (ip), vehicle: Klucel + Tween-80) 91 % of control; (dose: 50.0 mg/kg/injection, schedule: Q01DX005 (ip), vehicle: Klucel + Tween-80) 88 % of control; (dose: 100.0 mg/kg/injection, schedule: Q01DX005 (ip), vehicle: Klucel + Tween-80) 87 % of control and 92 % of control; (dose: 200.0 mg/kg/injection, schedule: Q01DX005 (ip), vehicle: Klucel + Tween-80) 86 % of control and 88 % of control; (dose: 400.0 mg/kg/injection, schedule: Q01DX005 (ip), vehicle: Klucel + Tween-80) 89 % of control.
On to `NCCCCC(C(=O)NC(Cc1ccc(O)cc1)C(=O)NN)N(C(=O)OCc1ccccc1)C(=O)OCc1ccccc1` (stereo not given), for which the T/C was 107 % of control (dose: 50.0 mg/kg/injection, schedule: Q01DX005 (ip), vehicle: saline + Tween-80 + alcohol); 104 % of control (dose: 100.0 mg/kg/injection, schedule: Q01DX005 (ip), vehicle: saline + Tween-80 + alcohol); 94 % of control (dose: 200.0 mg/kg/injection, schedule: Q01DX005 (ip), vehicle: saline + Tween-80 + alcohol).
As for `COC(=O)c1nc(-c2ccc3c(n2)C(=O)C(N)=C(OC)C3=O)c(N)c(-c2ccc(OC)c(OC)c2O)c1C`, the T/C (dose: 1.5 mg/kg/injection, schedule: Q01DX009 (ip), vehicle: saline with Tween-80) is 100 % of control; the T/C (dose: 3.0 mg/kg/injection, schedule: Q01DX009 (ip), vehicle: saline with Tween-80) was 118 % of control; the T/C (dose: 6.0 mg/kg/injection, schedule: Q01DX009 (ip), vehicle: saline with Tween-80) is 122 % of control; the T/C (dose: 6.25 mg/kg/injection, schedule: Q01DX009 (ip), vehicle: saline with Tween-80) was 150 % of control; the T/C (dose: 66.0 mg/kg/injection, schedule: Q04DX003 (ip), vehicle: saline with Tween-80) is 109 % of control.
As for `Cc1c2cccc1CSCc1cccc(c1C)CSC2`, the T/C runs as follows: (dose: 50.0 mg/kg/injection, schedule: Q01DX009 (ip), vehicle: suspension in saline) 99 % of control; (dose: 100.0 mg/kg/injection, schedule: Q01DX009 (ip), vehicle: suspension in saline) 92 % of control; (dose: 200.0 mg/kg/injection, schedule: Q01DX009 (ip), vehicle: suspension in saline) 100 % of control.
As for `CCOC(=O)C1C/C(=N\OC(C)=O)c2ccc(OC)c(OC)c2C1` (stereo not given), the T/C runs as follows: (dose: 12.5 mg/kg/injection, schedule: Q01DX009 (ip), vehicle: other) 110 % of control; (dose: 25.0 mg/kg/injection, schedule: Q01DX009 (ip), vehicle: other) 101 % of control; (dose: 50.0 mg/kg/injection, schedule: Q01DX009 (ip), vehicle: other) 98 % of control; (dose: 100.0 mg/kg/injection, schedule: Q01DX009 (ip), vehicle: other) 87 % of control; (dose: 200.0 mg/kg/injection, schedule: Q01DX009 (ip), vehicle: other) 88 % of control.
With `COCC12CCC(OC)C34C5CC6(O)C(OC)C=C(C5C6OC(=O)c5ccccc5)C(C(OC)C13)C4N(C)C2` (stereo not given), the T/C is 100 % of control under setting [1], 95 % of control under setting [2] and 100 % of control under setting [3].
For the compound `CS(=N)(=O)CCC(N)P(=O)(O)O` (stereo not given), the T/C is, setting by setting: (dose: 50.0 mg/kg/injection, schedule: Q01DX005 (ip), vehicle: saline) 95 % of control; (dose: 100.0 mg/kg/injection, schedule: Q01DX005 (ip), vehicle: saline) 92 % of control; (dose: 200.0 mg/kg/injection, schedule: Q01DX005 (ip), vehicle: saline) 100 % of control.
Consider `OCC1OC(n2cnc3c(NO)ncnc32)C(O)C1O` (stereo not given), for which the T/C is, setting by setting: under setting [4], 102 % of control; under setting [1], 100 % of control; under setting [2], 99 % of control and 109 % of control and 110 % of control; under setting [3], 100 % of control and 107 % of control and 113 % of control; under setting [5], 103 % of control and 113 % of control and 97 % of control; (dose: 400.0 mg/kg/injection, schedule: Q01DX009 (ip), vehicle: Klucel (hydroxypropylcellulose) (HPC)) 102 % of control and 119 % of control.
For `CN(C)CCNC(=O)c1nn(-c2ccccc2)c2c1CSc1ccccc1-2`, the T/C (dose: 100.0 mg/kg/injection, schedule: Q04DX002 (ip), vehicle: saline with Tween-80) is 100 % of control; the T/C (dose: 200.0 mg/kg/injection, schedule: Q04DX002 (ip), vehicle: saline with Tween-80) was 105 % of control; the T/C (dose: 400.0 mg/kg/injection, schedule: Q04DX002 (ip), vehicle: saline with Tween-80) was 103 % of control.
Consider `O=[N+]([O-])c1ccc(-n2[nH]nnc2=S)cc1`, for which the T/C reads like this: under setting [6], 98 % of control and 104 % of control; (dose: 100.0 mg/kg/injection, schedule: Q04DX003 (ip), vehicle: saline with Tween-80) 100 % of control and 104 % of control; (dose: 200.0 mg/kg/injection, schedule: Q04DX003 (ip), vehicle: saline with Tween-80) 98 % of control and 91 % of control.
For `Cc1cc(C)cc(C(=O)N=C(c2ccncc2)c2nc(-c3ccccc3)oc2O)c1`, the T/C is, setting by setting: under setting [7], 88 % of control; (dose: 120.0 mg/kg/injection, schedule: Q01DX005 (ip), vehicle: saline with Tween-80) 86 % of control; (dose: 240.0 mg/kg/injection, schedule: Q01DX005 (ip), vehicle: saline with Tween-80) 88 % of control.
For the compound `CCOC(=O)C(C)(NC(=O)CN)C1CC1` (stereo not given), the T/C reads like this: (dose: 50.0 mg/kg/injection, schedule: Q01DX009 (ip), vehicle: saline) 90 % of control; (dose: 100.0 mg/kg/injection, schedule: Q01DX009 (ip), vehicle: saline) 94 % of control; (dose: 200.0 mg/kg/injection, schedule: Q01DX009 (ip), vehicle: saline) 97 % of control.
On to `N#Cc1c(C(=O)NN)c2c(-c3ccccc3)n[nH]c(=O)c2[nH]c1=O`, for which the T/C is 100 % of control (dose: 100.0 mg/kg/injection, schedule: Q01DX001 (ip), vehicle: saline with Tween-80) and 91 % of control (dose: 200.0 mg/kg/injection, schedule: Q01DX001 (ip), vehicle: saline with Tween-80).
Turning to `Nc1ccc(-c2csc(-c3ccccc3)n2)c(Cl)c1`, the T/C under setting [4] was 98 % of control and 99 % of control; the T/C under setting [1] is 103 % of control and 115 % of control; the T/C under setting [2] is 103 % of control and 113 % of control.
For the compound `O=[N+]([O-])c1ccc(-c2nc(/C=N/N3CCCCC3)cs2)o1`, the T/C is, setting by setting: (dose: 25.0 mg/kg/injection, schedule: Q01DX009 (ip), vehicle: saline with Tween-80) 100 % of control; (dose: 50.0 mg/kg/injection, schedule: Q01DX009 (ip), vehicle: saline with Tween-80) 100 % of control; (dose: 100.0 mg/kg/injection, schedule: Q01DX009 (ip), vehicle: saline with Tween-80) 99 % of control.
With `Cc1cc(N)n2c(nc3ccccc32)c1C#N`, the T/C (dose: 15.0 mg/kg/injection, schedule: Q01DX005 (ip), vehicle: saline with Tween-80) is 102 % of control; the T/C (dose: 30.0 mg/kg/injection, schedule: Q01DX005 (ip), vehicle: saline with Tween-80) was 100 % of control; the T/C under setting [7] is 93 % of control and 97 % of control.
Turning to `COc1cc(C=Nc2ccc(Cl)cc2)ccc1N(CCCl)CCCl`, the T/C was 100 % of control (dose: 0.44 mg/kg/injection, schedule: Q01DX009 (ip), vehicle: saline with Tween-80); 100 % of control (dose: 0.66 mg/kg/injection, schedule: Q01DX009 (ip), vehicle: saline with Tween-80); 109 % of control (dose: 1.0 mg/kg/injection, schedule: Q01DX009 (ip), vehicle: saline with Tween-80); 95 % of control (dose: 2.5 mg/kg/injection, schedule: Q01DX009 (ip), vehicle: saline with Tween-80); 157 % of control (dose: 5.0 mg/kg/injection, schedule: Q01DX009 (ip), vehicle: saline with Tween-80); 204 % of control under setting [6].
Regarding `Cc1cc(OC2OC(CO)C(O)C(O)C2O)ccc1O` (stereo not given), the T/C under setting [1] was 87 % of control, the T/C under setting [2] was 96 % of control and the T/C under setting [5] is 89 % of control.
In the case of `O=C1NCCCCCC1S(=O)c1ccccc1` (stereo not given), the T/C by setting is: (dose: 50.0 mg/kg/injection, schedule: Q01DX005 (ip), vehicle: saline with Tween-80) 103 % of control; (dose: 100.0 mg/kg/injection, schedule: Q01DX005 (ip), vehicle: saline with Tween-80) 96 % of control; (dose: 200.0 mg/kg/injection, schedule: Q01DX005 (ip), vehicle: saline with Tween-80) 101 % of control.
